The values below come from patent EP0528699B1, “Saishin N derivatives, process for their preparation and anti-ulcer agents containing them” (TOKYO TANABE COMPANY LIMITED, priority 1991, dated 1993).

For the experiment, the system named is Hydrochloric acid-Ethanol-Induced Ulcers. In words: Hydrochloric acid-Ethanol-Induced Ulcers. It counts as in vivo, male Wister rats. Conditions: for inhibition in vivo at 20 mg/kg / inhibition in vivo at 10 mg/kg / inhibition in vivo at 5 mg/kg: Rattus norvegicus, intraduodenal, read-out: Inhibition ratio(%); for inhibition in vivo at 10 mg/kg: dose 10 mg/kg intraduodenally one hour before hydrochloric acid - 60% ethanol; for inhibition in vivo at 5 mg/kg: dose 5 mg/kg intraduodenally one hour before hydrochloric acid - 60% ethanol. The protocol:
Experiments on Hydrochloric acid-Ethanol-Induced Ulcers, Aspirin-Induced Ulcers, Water-Immersion stress-Induced Ulcers, Shay's Ulcers and Serotonin-Induced Ulcers were carried out using male Wister rats weighing about 200g in groups of six. Experiments on Ischemia-Reperfusion -Induced Gastric Lesions were carried out using male SD rats weighing about 250g in groups of six. Other than for the tests on Ischemia-Reperfusion-Induced Gastric Lesions Models, the test compounds were prepared by mixing thoroughly with polyethyleneglycol and 0.5% sodium carboxymethyl cellulose solution and emulsifying vigorously. Activities against respective ulcer models were evaluated by an inhibiting ratio obtained by dividing the difference between the ulceration indexes of the non-administered group and the test compound group by the non-administered group.
To each rat which had been fasted for 24 hours was orally administered 0.5ml of a mixed solution of 150 mM hydrochloric acid - 60% ethanol per 100g of weight. Each rat was slaughtered after one hour, a length of ulcer formed at the fundus gland area of stomach was measured and ulceration index was calculated based on the length. The test compound was administered intraduodenally one hour or three hours before the administration of mixed solution of hydrochloric acid - 60% ethanol.

[1] abbreviates: 3 h, Table 1, dose 20 mg/kg intraduodenally three hours before hydrochloric acid - 60% ethanol.

Where two headings read alike, the source gives them in different places. Marks after values point to notes of the source that are not given here.

For `CO[C@H]1C[C@H](C)C(=O)CC(C)(C)C1OC(=O)c1ccccc1` (relative stereo) [AU123A, 2,4-trans-5-benzoyloxy-4-methoxy-2,6,6-trimethylcycloheptan-1-one], under setting [1], the inhibition in vivo at 20 mg/kg was 34%.
Consider `CC(=O)OC1C=C(C)C(=O)CC(C)(C)C1OC(C)=O` (stereo not shown) [AU102, 4,5-diacetoxy-2,6,6-trimethyl-2-cyclohepten-1-one], for which the inhibition in vivo at 10 mg/kg (1 h, Table 2) is 75%. Under setting [1], the inhibition in vivo at 20 mg/kg was determined as 49%.
With `COC12CC(C)(C)C(O1)C(O)CC2C` (stereo not drawn) [AU105A, 2,4-trans-1-methoxy-2,6,6-trimethyl-8-oxabicyclo [3.2.1] octan-4-ol], for the setting “Table 1, dose 20 mg/kg intraduodenally three hours before hydrochloric acid - 60% ethanol, 20 mg/kg”, the “Inhibition ratio(%)” value was 44* %.
In the case of `COC12CC(C)(C)C(O1)C(OC(C)=O)CC2C` (stereo not drawn) [AU108A, 2,4-trans-1-methoxy-4-acetoxy-2,6,6-trimethyl-8-oxabicyclo [3.2.1] octane], the inhibition in vivo at 10 mg/kg (1 h, Table 2) turned out to be 75%. Also, under setting [1], the inhibition in vivo at 20 mg/kg came out at 55%.
In the case of `COC1CC(C)(C)C(OC(C)=O)C(OC(C)=O)C=C1C` (stereo not shown) [AU112, 4,5-diacetoxy-1-methoxy-2,6,6-trimethyl-2-cycloheptene], the inhibition in vivo at 20 mg/kg under setting [1] amounted to 45%.
Still for that read-out and setting: the figure for `COC1CC(C)(C)C(OC)C(OC)C=C1C` (stereo not shown) [AU113, 1,4,5-trimethoxy-2,6,6-trimethyl-2-cycloheptene] is 39%.
`COC1CC(C)(C)C(OC(=O)c2ccccc2)C(O)C=C1C` (stereo not shown) [AU115, 5-benzoyloxy-1-methoxy-2,6,6-trimethyl-2-cyclohepten-4-ol]: the inhibition in vivo at 20 mg/kg under setting [1] was determined as 83%.
Regarding `COC1C=C(C)C(=O)CC(C)(C)C1OC(=O)c1ccccc1` (stereo not shown) [AU121, 5-benzoyloxy-4-methoxy-2,6,6-trimethyl-2-cyclohepten-1-one], under setting [1], the inhibition in vivo at 20 mg/kg was found to be 50%.
Same read-out and setting: for `COC1CC(C)C(=O)CC(C)(C)C1OC(=O)c1ccccc1` (stereo not drawn) [AU123B, 2,4-cis-5-benzoyloxy-4-methoxy-2,6,6-trimethyl cycloheptan-1-one] the value was 25%; for `CC1=CC(O)C(OC(=O)c2ccccc2Cl)C(C)(C)CC1=O` (stereo not shown) [AU127, 5-(2-chlorobenzoyloxy)-4-hydroxy-2,6,6-trimethyl-2-cyclohepten-1-one], 87%; for `CC1=CC(O)C(OC(=O)c2ccc(Cl)cc2)C(C)(C)CC1=O` (stereo not shown) [AU128, 5-(4-chlorobenzoyloxy)-4-hydroxy-2,6,6-trimethyl-2-cyclohepten-1-one], 53%.
Regarding `COc1ccc(C(=O)OC2C=C(C)C(=O)CC(C)(C)C2O)cc1OC` (stereo not shown) [AU133, 4-(3,4-dimethoxybenzoyloxy)-5-hydroxy-2,6,6-trimethyl-2-cyclohepten-1-one], under setting [1], the inhibition in vivo at 20 mg/kg worked out at 38%.
In the case of `CC(C)=CCOC1CC(C)(C)C(O)C(OC(=O)c2ccccc2)C=C1C` (stereo not shown) [AU144, 4-benzoyloxy-1-(3-methyl-2-buten-1-yloxy)-2,6,6-trimethyl-2-cyclohepten-5-ol], the inhibition in vivo at 20 mg/kg under setting [1] came to 51%.
As to `COC12CC(C)(C)C(O1)C(O)C=C2C` (stereo not shown) [AU152, 1-methoxy-2,6,6-trimethyl-8-oxabicyclo [3.2.1] oct-2-en-4-ol], the inhibition in vivo at 20 mg/kg (1 h, Table 2, dose 20 mg/kg intraduodenally one hour before hydrochloric acid - 60% ethanol) was determined as 87%.
With `COC12CC(C)(C)C(O)C(C=C1C)O2` (stereo not shown) [AU153, 1-methoxy-3,3,7-trimethyl-8-oxabicyclo [3.2.1] oct-6-en-4-ol], the inhibition in vivo at 10 mg/kg (1 h, Table 2) came out at 55%.
As for `COC1C=C(C)C2(OC)CC(C)(C)C1O2` (stereo not shown) [AU155, 1,4-dimethoxy-2,6,6-trimethyl-8-oxabicyclo [3. 2. 1] oct-2-ene], under “1 h, Table 2”, the inhibition in vivo at 5 mg/kg amounted to 93% and the inhibition in vivo at 10 mg/kg was determined as 96%.
Take `CC1=CC(OCc2ccccc2)C(O)C(C)(C)CC1=O` (stereo not shown) [AU156, 4-benzyloxy-5-hydroxy-2,6,6-trimethyl-2-cyclohepten-1-one]: the inhibition in vivo at 10 mg/kg (1 h, Table 2) was 97%.
Take `COC12CC(C)(C)C(O1)C(OCc1ccccc1)C=C2C` (stereo not shown) [AU157, 1-methoxy-4-benzyloxy-2,6,6-trimethyl-8-oxabicyclo [3.2.1] oct-2-ene]: the inhibition in vivo at 5 mg/kg (1 h, Table 2) is 64%.
On the same count and under the same terms, for `COC12CC(C)(C)C(O1)C(OC(C)=O)C=C2C` (stereo not shown) [AU158, 4-acetoxy-1-methoxy-2,6,6-trimethyl-8-oxabicyclo [3.2.1] oct-2-ene] the value was 33%.
With `COC12CC(C)(C)C(OC(C)=O)C(C=C1C)O2` (stereo not shown) [AU159, 4-acetoxy-1-methoxy-3,3,7-trimethyl-8-oxabicyclo [3.2.1] oct-6-ene], under “1 h, Table 2”, the inhibition in vivo at 5 mg/kg came to 94% and the inhibition in vivo at 10 mg/kg was found to be 83%.
For the molecule `COC12CC(C)(C)C(O1)C(=O)CC2C` (stereo not shown) [AU163, 1-methoxy-2,6,6-trimethyl-8-oxabicyclo [3.2.1] octan-4-one], the inhibition in vivo at 20 mg/kg under setting [1] was determined as 32%.
As to `CC1=CC(=O)C2OC1(OC(=O)c1ccccc1)CC2(C)C` (stereo not shown) [AU168, 1-benzoyloxy-2,6,6-trimethyl-8-oxabicyclo [3.2.1] oct-2-en-4-one], under setting [1], the inhibition in vivo at 20 mg/kg is 46%.
In the case of `CC1=CC(O)C(OC(=O)c2ccccc2)C(C)(C)CC1=O` (stereo not shown) [AU183, 5-benzoyloxy-4-hydroxy-2,6,6-trimethyl-2-cyclohepten-1-one], under setting [1], the inhibition in vivo at 20 mg/kg turned out to be 73%.
With `COc1ccc(COC2CC(C)C(=O)CC(C)(C)C2OC(C)=O)cc1` (stereo not drawn) [AU185, 2,4-cis-5-acetoxy-4-(4-methoxybenzyloxy)-2,6,6-trimethylcycloheptan-1-one], the inhibition in vivo at 20 mg/kg under setting [1] came out at 34%.
Still for that read-out and setting: the figure for `COc1ccc(COC2CC(C)C(=O)CC(C)(C)C2OC(=O)c2ccccc2)cc1` (stereo not drawn) [AU187, 2,4-cis-5-benzoyloxy-4-(4-methoxybenzyloxy)-2,6,6-trimethylcycloheptan-1-one] is 35%; for `CC(=O)OC1C=C(C)C(=O)CC(C)(C)C1OC(=O)c1ccccc1` (stereo not shown) [AU189, 4-acetoxy-5-benzoyloxy-2,6,6-trimethyl-2-cyclohepten-1-one] it is 63%; for `CC1CC(O)C(OC(=O)c2ccccc2)C(C)(C)CC1=O` (stereo not drawn) [AU191, 2,4-cis-5-benzoyloxy-4-hydroxy-2,6,6-trimethyl cycloheptan-1-one] it is 53%.
Same read-out and setting: the figure for `CC(=O)OC1CC(C)C(=O)CC(C)(C)C1OC(=O)c1ccccc1` (stereo not drawn) [AU192, 2,4-cis-4-acetoxy-5-benzoyloxy-2,6,6-trimethylcycloheptan-1-one] is 49%; for `CC(=O)OC1C(OC(=O)c2ccccc2)C=C(C)C(=O)CC1(C)C` (stereo not shown) [AU193, 5-acetoxy-4-benzoyloxy-2,6,6-trimethyl-2-cyclohepten-1-one] it is 60%.
For the molecule `CC(=O)OC1C(OC(=O)c2ccccc2)CC(C)C(=O)CC1(C)C` (stereo not drawn) [AU194, 2,4-cis-5-acetoxy-4-benzoyloxy-2,6,6-trimethylcycloheptan-1-one], under setting [1], the inhibition in vivo at 20 mg/kg amounted to 23%.
Regarding `COc1ccc(C(=O)OC2C=C(C)C(=O)CC(C)(C)C2O)cc1` (stereo not shown) [AU195, 5-hydroxy-4-(4-methoxybenzoyloxy)-2,6,6-trimethyl-2-cyclohepten-1-one], the inhibition in vivo at 20 mg/kg under setting [1] amounted to 40%.
The same measure, in the same setting: the figure for `CC(=O)OC1C(OC(=O)c2ccc(N)cc2)C=C(C)C(=O)CC1(C)C` (stereo not shown) [AU197, 5-acetoxy-4-(4-aminobenzoyloxy)-2,6,6-trimethyl-2-cyclohepten-1-one] is 44%.
Regarding `CC(=O)OC1C(OC(=O)c2cccc(Cl)c2)CC(C)C(=O)CC1(C)C` (stereo not drawn) [AU199, 2,4-cis-5-acetoxy-4-(3-chlorobenzoyloxy)-2,6,6-trimethylcycloheptan-1-one], under setting [1], the inhibition in vivo at 20 mg/kg turned out to be 29%.
